# Results as given in US11160790B2, “Method of inhibiting Cryptococcus growth using eltrombopag” (priority 2019, dated 2021).
# Experiments:
# [1] = test system: Aspergillus fumigatus AF293; assay: Microdilution assay (CLSI M27-A3/M38-A2), MIC and MFC; format: cell-based
# Description: (§1) Cryptococcus and Candida species were cultured in yeast extract-peptone-dextrose (YPD) medium (containing 1% yeast extract, 2% peptone, 2% glucose, and optionally 2% agar for preparation of an agar plate). Aspergillus, Fusarium, and Trichophyton species were cultured on potato dextrose agar (PDA) plate (containing 2% potato infusion, […], and 1.5% agar). A microdilution assay was performed to determine minimum inhibitory concentration (MIC), minimum fungicidal concentration (MFC), and fractional inhibitory concentration (FIC) index (FICI) using RPMI 1640 medium buffered with MOPS. Minimal medium (containing 15 mM glucose, 10 mM magnesium sulfate, 29.4 mM potassium dihydrogen phosphate, 13 mM glycine, and 3 μM thiamine hydrochloride; pH 5.5) was used for capsule size assay and melanization assay.
# (§2) To investigate the inhibitory effects of eltrombopag on the growth of fungi, microdilution assays (based on the CLSI standards M27-A3 and M38-A2) were performed with multiple pathogenic yeasts and filamentous fungi including Cryptococcus, Candida, Aspergillus, Fusarium, and Trichophyton (TABLE 1). Briefly, yeast or filamentous fungi strains at a final concentration of about 10^3 cfu/mL were inoculated in RPMI 1640 medium containing two-fold serially diluted eltrombopag (started at 64 mg/L). In addition, fungal cultures without eltrombopag were used as positive controls, while media without fungal cells and eltrombopag were used as negative controls. The 96-well plates loaded with the aforementioned cultures were incubated at 35° C. for 48 hours, and the growth of cells in each well was examined to determine the minimum inhibitory concentration (MIC) of eltrombopag, which was the lowest drug concentration at which there was no visible cell growth. Thereafter, 3 μL of the fungal culture from each well of the 96-well plates was spotted onto eltrombopag-free YPD (for yeasts) or PDA (for filamentous fungi) agar plates, which were then incubated at 35° C. for 48 hours to examine colony formation Minimum fungicidal concentration (MFC) was determined to be the lowest drug concentration at which no colonies formed. The assays were performed in triplicate.
# Candida albicans SC5314 = assay: as above; format: cell-based; conditions: 35° C.
# Description: as §1, §2
# Candida glabrata CBS138 = assay: as above; format: cell-based; conditions: Nakaseomyces glabratus, 35° C.
# Description: as §1, §2
# Candida krusei ATCC6258 = assay: as above; format: cell-based; conditions: Pichia kudriavzevii, 35° C.
# Description: as §1, §2
# [2] = test system: Candida lusitaniae ATCC42720; assay: as above; format: cell-based; conditions: Clavispora lusitaniae, 35° C.
# Description: as §1, §2
# [3] = test system: Candida parapsilosis ATCC22019; assay: as above; format: cell-based; conditions: Lodderomyces parapsilosis, 35° C.
# Description: as §1, §2
# [4] = test system: Candida tropicalis MYA3404; assay: as above; format: cell-based; conditions: 35° C.
# Description: as §1, §2
# [5] = test system: Cryptococcus deuterogattii R265; assay: as above; format: cell-based; conditions: 35° C.
# Description: as §1, §2
# [6] = test system: Cryptococcus deuterogattii R272; assay: as above; format: cell-based; conditions: 35° C.
# Description: as §1, §2
# [7] = test system: Cryptococcus gattii WM276; assay: as above; format: cell-based; conditions: 35° C.
# Description: as §1, §2
# [8] = test system: Cryptococcus neoformans 89-610; assay: as above; format: cell-based; conditions: 35° C.
# Description: as §1, §2
# [9] = test system: Cryptococcus neoformans H99; assay: as above; format: cell-based; conditions: 35° C.
# Description: as §1, §2
# [10] = test system: Cryptococcus neoformans T1; assay: as above; format: cell-based
# Description: as §1, §2
# [11] = test system: Fusarium solani Fungus III-6; assay: as above; format: cell-based
# Description: as §1, §2
# [12] = test system: Trichophyton rubrum MYA4438; assay: as above; format: cell-based
# Description: as §1, §2
# [13] = test system: multiple C. neoformans/C. gattii; assay: Microdilution assay, summary for Cryptococcus species; format: cell-based
# Description: as §1, with “Minimal medium (containing 15 mM glucose, 10 mM magnesium sulfate, 29.4 mM potassium dihydrogen phosphate, 13 mM glycine, and 3 μM thiamine hydrochloride; pH 5.5) was used for capsule size assay and melanization assay.” left out
# To investigate the inhibitory effects of eltrombopag on the growth of fungi, microdilution assays (based on the CLSI standards M27-A3 and M38-A2) were performed with multiple pathogenic yeasts and filamentous fungi including Cryptococcus, Candida, Aspergillus, Fusarium, and Trichophyton (TABLE 1). […] Thereafter, 3 μL of the fungal culture from each well of the 96-well plates was spotted onto eltrombopag-free YPD (for yeasts) or PDA (for filamentous fungi) agar plates, which were then incubated at 35° C. for 48 hours to examine colony formation Minimum fungicidal concentration (MFC) was determined to be the lowest drug concentration at which no colonies formed. […]
# C. neoformans H99 [14] = assay: Disk diffusion susceptibility assay; format: cell-based, Cryptococcus neoformans; conditions: 10 μg per disk; 25° C., 30° C. or 37° C., 48 hours
# Description: A disk diffusion susceptibility assay was performed to further investigate the fungistatic activity of eltrombopag at different temperatures. Briefly, C. neoformans […] or C. deuterogattii 8265 was cultured overnight at 30° C., and 100 μL of the culture (at an OD600 of about 0.1) was spread on RPMI 1640 agar plates. Paper disks (with a diameter of 6 mm) were then placed on these agar plates, and either 10 μg eltrombopag (dissolved in 5 μL DMSO) or 5 μL DMSO (control) was added to each disk. The agar plates were incubated at 25° C., 30° C., or 37° C. for 48 hours and photographed.
# C. neoformans H99 [15] = assay: Melanization assay (L-DOPA); format: cell-based, Cryptococcus neoformans; conditions: 0.03 mg/L (¼ MIC) or 0.06 mg/L (½ MIC); 1 mM L-DOPA, 30° C.
# Description: as §1
# Melanin protects Cryptococcus from toxic free radicals produced by the host defense system, and thus melanin production is important for the pathogenicity of Cryptococcus. To study whether eltrombopag has an effect on melanin production in Cryptococcus, 5×10^4 C. neoformans H99 cells were cultured in minimal medium (abbreviated as MM) with or without 1 mM L-DOPA in the presence or absence of eltrombopag. The flasks containing the cultures were wrapped in foil to prevent L-DOPA auto-polymerization. […]
compound,measurement,setting,value
CC1=NN(c2ccc(C)c(C)c2)C(=O)/C1=N\Nc1cccc(-c2cccc(C(=O)O)c2)c1O [eltrombopag],antifungal activity,[1],no antifungal activity
same,MIC,"[1]; Aspergillus fumigatus, AF293, 35° C., 48 hours",> 64 µg/mL
same,MFC,"[1]; Aspergillus fumigatus, AF293, 35° C., 48 hours on drug-free agar",> 64 µg/mL
same,MIC,Candida albicans SC5314; 48 hours,> 64 µg/mL
same,MFC,Candida albicans SC5314; 48 hours on drug-free agar,> 64 µg/mL
same,MIC,"Candida glabrata CBS138; CBS138, 48 h, 48 hours",~0.25 µg/mL
same,MFC,"Candida glabrata CBS138; CBS138, 48 hours on drug-free agar",> 64 µg/mL
same,MIC,Candida krusei ATCC6258; 48 hours,64 µg/mL
same,MFC,Candida krusei ATCC6258; 48 hours on drug-free agar,> 64 µg/mL
same,MIC,[2]; 48 hours,64 µg/mL
same,MFC,[2]; 48 hours on drug-free agar,> 64 µg/mL
same,MIC,[3]; 48 hours,64 µg/mL
same,MFC,[3]; 48 hours on drug-free agar,> 64 µg/mL
same,MIC,[4]; 48 hours,64 µg/mL
same,MFC,[4]; 48 hours on drug-free agar,> 64 µg/mL
same,MIC,[5]; 48 hours,0.125 µg/mL
same,MFC,[5]; 48 hours on drug-free agar,> 64 µg/mL
same,MIC,[6]; 48 hours,0.125 µg/mL
same,MFC,[6]; 48 hours on drug-free agar,> 64 µg/mL
same,MIC,[7]; 48 hours,0.125 µg/mL
same,MFC,[7]; 48 hours on drug-free agar,> 64 µg/mL
same,MIC,"[8]; Cryptococcus neoformans, 89610, 48 h, 48 hours, azole-resistant strain",0.125 µg/mL
same,MFC,"[8]; Cryptococcus neoformans, 89610, 48 hours on drug-free agar",> 64 µg/mL
same,MIC,[9]; 48 hours,0.125 µg/mL
same,MFC,[9]; 48 hours on drug-free agar,> 64 µg/mL
same,MFC,"[10]; T1, 35° C., 48 hours on drug-free agar",> 64 µg/mL
same,MIC,"[10]; T1, 48 h, 35° C., 48 hours, azole-resistant strain",0.125 µg/mL
same,antifungal activity,[11],no antifungal activity
same,MIC,"[11]; Fusarium solani, 35° C., 48 hours",> 64 µg/mL
same,MFC,"[11]; Fusarium solani, 35° C., 48 hours on drug-free agar",> 64 µg/mL
same,MFC,"[12]; MYA4438, 35° C., 48 hours on drug-free agar",> 64 µg/mL
same,MIC,"[12]; MYA4438, 48 h, 35° C., 48 hours",~0.5 µg/mL
same,MIC,[13]; 35° C.,~0.125 µg/mL
same,MFCs,[13]; Cryptococcus species,higher than 64 mg/L
same,inhibition zones,C. neoformans H99 [14],significantly larger inhibition zones were observed at 37 °C
same,melanin production,C. neoformans H99 [15],melanin production in C. neoformans reduced
